For this data set, the system named is iCell cardiomyocytes (human iPSC-derived cardiomyocytes). Nature of the data set: Intracellular Ca2+ flux / beating parameters in iCell cardiomyocytes (FLIPR tetra), 90 min or 24 h. It is filed as cell-based. The following applies: for activity at 0.01 µM / activity at 0.1 µM / activity at 1 µM / activity at 10 µM / activity at 100 µM: Homo sapiens, Cardiomyocyte, 0.00 µM = 100.00; for activity at 0.1 µM: 0.10 µM; for inotropic effect (cell beating parameters): iPSC-CMs, concentration-response 0.01-100 μM, 90 min and 24 h. In short, it runs like this: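 Gelatin-plated iCell cardiomyocytes (5,000/well) were dye-loaded for 2 h at 37 °C, then exposed for 90 min or 24 h to PCBs/metabolites (5× plates at 0.05–500 µM; 0.5% DMSO final) in triplicate. Ca2+ flux was read for 100 s at 8 Hz and 37 °C. Peak height, frequency, spacing CV and decay/rise ratio were vehicle-normalized and fitted with a four-parameter logistic model, with POD set at 1 SD of vehicle.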

Where [1] appears, read: 1.5 h, read-out: cm.amp.avg.90min.
[2] abbreviates: 1.5 h, read-out: cm.amp.cv.90min.
Where [3] appears, read: 1.5 h, read-out: cm.decay.rise.90min.
Where [4] appears, read: 1.5 h, read-out: cm.spacing.cv.90min.
Where [5] appears, read: 24 h, read-out: cm.amp.avg.24hrs.
[6] abbreviates: 24 h, read-out: cm.amp.cv.24hrs.
Where [7] appears, read: 24 h, read-out: cm.decay.rise.24hrs.
Setting [8] is: 24 h, read-out: cm.spacing.cv.24hrs.

SMILES strings stand for the structures. Counter-ions that a name gives are not always drawn. Like-named read-outs stand apart in the source and are kept apart here.

For the molecule `Oc1cc(Cl)cc(-c2cccc(Cl)c2)c1` [5-OH PCB 11], the activity at 0.01 µM reads like this: under setting [1], 101%; under setting [2], 105%; (1.5 h, read-out: cm.bpm.90min) 97.8%; under setting [3], 102%; under setting [4], 101%; under setting [5], 128%. Also, the activity at 0.01 µM by setting is: under setting [6], 95.9%; (24 h, read-out: cm.bpm.24hrs) 104%; under setting [7], 94.3%; under setting [8], 112%. Besides, the activity at 0.1 µM was 102% under setting [1]; 103% under setting [2]; 100% (1.5 h, read-out: cm.bpm.90min); 98.1% under setting [3]; 107% under setting [4]; 123% under setting [5]. In addition, the activity at 0.1 µM reads like this: under setting [6], 81.7%; (24 h, read-out: cm.bpm.24hrs) 97.4%; under setting [7], 98.8%; under setting [8], 113%. In addition, the activity at 1 µM reads like this: under setting [1], 104%; under setting [2], 101%; (1.5 h, read-out: cm.bpm.90min) 102%; under setting [3], 98.3%; under setting [4], 99.1%; under setting [5], 151%. In addition, the activity at 1 µM worked out at 71% under setting [6]; 91.7% (24 h, read-out: cm.bpm.24hrs); 100% under setting [7]; 89.5% under setting [8]. The activity at 10 µM came to 94.2% under setting [1]; 105% under setting [2]; 137% (1.5 h, read-out: cm.bpm.90min); 92% under setting [3]; 106% under setting [4]; 126% under setting [5]. For the same molecule, the activity at 10 µM worked out at 83.9% under setting [6]; 114% (24 h, read-out: cm.bpm.24hrs); 104% under setting [7]; 101% under setting [8]. Moreover, the activity at 100 µM worked out at 0% under setting [1]; 0% under setting [2]; 0% (1.5 h, read-out: cm.bpm.90min); 0% under setting [3]; 0% under setting [4]; 0% under setting [5]. Moreover, the activity at 100 µM worked out at 0% under setting [6]; 0% (24 h, read-out: cm.bpm.24hrs); 0% under setting [7]; 0% under setting [8].
As to `COc1ccc(-c2ccc(Cl)cc2)cc1` [4'-OMe-PCB 3, 4′-methoxy-4-chlorobiphenyl], the “inotropic effect (cell beating parameters)” value is “positive inotropic effects”.
Turning to `Clc1ccc(-c2ccccc2)cc1` [PCB 3, 4-chlorobiphenyl], the “inotropic effect (cell beating parameters)” value is “positive inotropic effects”.
In the case of `O=S(=O)(O)Oc1cc(Cl)ccc1-c1ccccc1` [2-yl PCB 3 sulfate], the activity at 0.01 µM reads like this: under setting [1], 107%; under setting [2], 102%; (1.5 h, read-out: cm.bpm.90min) 99.1%; under setting [3], 97.6%; under setting [4], 134%; under setting [5], 117%. The activity at 0.01 µM under setting [6] turned out to be 119%; the activity at 0.01 µM (24 h, read-out: cm.bpm.24hrs) was determined as 111%; the activity at 0.01 µM under setting [7] came to 86.8%; the activity at 0.01 µM under setting [8] is 109%. Also, the activity at 0.1 µM was found to be 107% under setting [1]; 90.3% under setting [2]; 97.8% (1.5 h, read-out: cm.bpm.90min); 94.2% under setting [3]; 100% under setting [4]; 63.4% under setting [5]. Moreover, the activity at 0.1 µM runs as follows: under setting [6], 37.6%; (24 h, read-out: cm.bpm.24hrs) 53.5%; under setting [7], 43.6%; under setting [8], 50.5%. The activity at 1 µM worked out at 102% under setting [1]; 102% under setting [2]; 96.5% (1.5 h, read-out: cm.bpm.90min); 99.3% under setting [3]; 99.6% under setting [4]; 0% under setting [5]. Further, the activity at 1 µM under setting [6] is 0%; the activity at 1 µM (24 h, read-out: cm.bpm.24hrs) came out at 0%; the activity at 1 µM under setting [7] was determined as 0%; the activity at 1 µM under setting [8] was 0%. The activity at 10 µM is 106% under setting [1]; 107% under setting [2]; 96.5% (1.5 h, read-out: cm.bpm.90min); 97.2% under setting [3]; 90.8% under setting [4]; 121% under setting [5]. Also, the activity at 10 µM under setting [6] was determined as 81.4%; the activity at 10 µM (24 h, read-out: cm.bpm.24hrs) stood at 92.6%; the activity at 10 µM under setting [7] amounted to 98.1%; the activity at 10 µM under setting [8] was found to be 91.4%. Besides, the activity at 100 µM is 114% under setting [1]; 117% under setting [2]; 84% (1.5 h, read-out: cm.bpm.90min); 100% under setting [3]; 99% under setting [4]; 97.7% under setting [5]. In addition, the activity at 100 µM under setting [6] was 85.5%; the activity at 100 µM (24 h, read-out: cm.bpm.24hrs) was found to be 77.3%; the activity at 100 µM under setting [7] worked out at 106%; the activity at 100 µM under setting [8] stood at 86.6%.
With `Oc1cc(Cl)c(-c2cc(Cl)ccc2Cl)cc1Cl` [4-OH-PCB 52], the “effect on Ca2+ flux” value (iPSC-CM, 100 μM, because of loss of cell viability) was “complete block of Ca^2+ flux”.
